In publication doi:10.1101/415984v3 (biorxiv, 2018):

Legend:
[1] = target: T1, dFABP (Drosophila brain-type FABP) (Drosophila melanogaster, UniProt Q9VGM2); test: isothermal titration calorimetry; format: binding
T1 sequence (Q9VGM2 1-130): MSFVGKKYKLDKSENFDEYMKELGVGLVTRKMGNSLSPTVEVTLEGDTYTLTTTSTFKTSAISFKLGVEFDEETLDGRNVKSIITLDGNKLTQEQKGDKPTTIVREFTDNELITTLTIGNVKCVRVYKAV

[2] = target: T1, dFABP (Drosophila brain-type FABP); test: intrinsic tyrosine fluorescence melting; format: binding; conditions: GuHCl-purified dFABP; protein:OA 1:2; 20 mM Tris pH 8.0, 1 mM beta-ME

CCCCCCCC/C=C\CCCCCCCC(=O)O [OA, oleic acid]
Kd [1]: ~1600 nM
change in Tm [2]: ~ 5 °C
